According to patent publication US10300023B1, “Stabilized assembled nanostructures for delivery of encapsulated agents” (The Brigham and Women's Hospital, Inc., priority 2015, dated 2019):

Columns and labels:
[1] = test system: PC3 (PC-3) human prostate cancer cells; assay: In vitro cytotoxicity (% metabolic activity) in PC3 cells; type: cell-based; details: n = 3
Protocol: (§1) Nanofiber cytotoxicity was studied in vitro in prostate cancer cells—PC3 and LNCaP.
(§2) FIG. 8A is a line graph showing the % metabolic activity of PC3 (PC-3) human prostate cancer cells incubated with a range of concentrations (μM) of a vitamin C solution for 48 hours (“Vit C 48 h”, black square) or of stabilized vitamin C-derived particles for 24 hours or 48 hours (“Vit C particles 24 h” (grey square) and “Vit C particles 48 h” (triangle), respectively). FIG. 8B is a line graph showing the % metabolic activity of LNCaP androgen-sensitive human prostate adenocarcinoma cells incubated with Vit C for 48 hours (black squares), Vit C particles for 24 hours (grey squares), and Vit C particles for 48 hours (triangles).
(§3) FIGS. 9A and 9B are line graphs showing the % metabolic activity of PC3 cells (FIG. 9A) and the % metabolic activity of LNCaP cells (FIG. 9B) when incubated with a range of concentrations (μM) of stabilized vitamin C-derived particles (“Vit C particles”, grey squares), of free docetaxel (“free DTX”, diamonds), or of stabilized vitamin C-derived particles encapsulating docetaxel (“DTX loaded Vit C particles”, triangles).

[2] = test system: LNCaP androgen-sensitive human prostate adenocarcinoma cells; assay: In vitro cytotoxicity (% metabolic activity) in LNCaP cells; type: cell-based; details: n = 3
Protocol: as §1, §2, §3

`CC(=O)O[C@@]12CO[C@@H]1C[C@H](O)[C@@]1(C)C(=O)[C@H](O)C3=C(C)[C@@H](OC(=O)[C@H](O)[C@@H](NC(=O)OC(C)(C)C)c4ccccc4)C[C@@](O)([C@@H](OC(=O)c4ccccc4)[C@H]21)C3(C)C` [Free DTX, docetaxel] was tested, and the IC50 [1] was 620 nM and the IC50 [2] was 3600 nM.
